According to patent US10620222B2, “Electrified compositions for determining the risk of developing adolescent idiopathic scoliosis through the use of GI protein receptor” (CHU Sainte-Justine, priority 2008, dated 2020):
“And” between values parts separate entries of the source, which are not always exact repeats. Identical values can stand only once.

System: receptors coupled to Gi proteins expressed on osteoblasts
Assay: Cellular Dielectric Spectroscopy (CDS, CELLKEY) response to Gi-coupled receptor ligands in osteoblasts from control and AIS subjects
Assay type: cell-based, human
Set-up: % of control / % of control signal, Group 1, min diff. / % of control signal, Group 2, min diff. / % of control signal, Group 3, min diff.: concentration or dose not given beside the values; dZiec value / Absolute dZiec, control value of max diff. (maximal control value): unit not given here
Conditions: for dZiec value / Absolute dZiec, control value of max diff. (maximal control value) / Absolute dZiec, control value of min diff. (minimal control value) / Absolute dZiec, Group 1, max diff. (group value) / Absolute dZiec, Group 1, min diff. (group value) / Absolute dZiec, Group 2, max diff. (group value) / Absolute dZiec, Group 2, min diff. (group value) / Absolute dZiec, Group 3, max diff. (group value) / Absolute dZiec, Group 3, min diff. (group value): 300 μM ligand; for dZiec value: n1, n2 of Exper. 1-3; for Absolute dZiec, control value of max diff. (maximal control value) / Absolute dZiec, control value of min diff. (minimal control value): osteoblasts of control subjects; for Absolute dZiec, control value of max diff. (maximal control value) / Absolute dZiec, control value of min diff. (minimal control value) / Absolute dZiec, Group 1, max diff. (group value) / Absolute dZiec, Group 1, min diff. (group value) / Absolute dZiec, Group 2, max diff. (group value) / Absolute dZiec, Group 2, min diff. (group value) / Absolute dZiec, Group 3, max diff. (group value) / Absolute dZiec, Group 3, min diff. (group value): from FIGS. 11A-11F; for Absolute dZiec, Group 1, max diff. (group value) / Absolute dZiec, Group 1, min diff. (group value) / % of control signal, Group 1, max diff. / % of control signal, Group 1, min diff. / Absolute dZiec, Group 2, max diff. (group value) / Absolute dZiec, Group 2, min diff. (group value) / % of control signal, Group 2, max diff. / % of control signal, Group 2, min diff. / Absolute dZiec, Group 3, max diff. (group value) / Absolute dZiec, Group 3, min diff. (group value) / % of control signal, Group 3, max diff. / % of control signal, Group 3, min diff.: osteoblasts; for Absolute dZiec, Group 1, max diff. (group value): AIS Group 1 value of max diff.; for Absolute dZiec, Group 1, min diff. (group value): AIS Group 1 value of min diff.; for % of control signal, Group 1, max diff.: AIS Group 1 vs maximal control value; for % of control signal, Group 1, min diff.: AIS Group 1 vs minimal control value; for Absolute dZiec, Group 2, max diff. (group value): AIS Group 2 value of max diff.; for Absolute dZiec, Group 2, min diff. (group value): AIS Group 2 value of min diff.; for % of control signal, Group 2, max diff.: AIS Group 2 vs maximal control value; for % of control signal, Group 2, min diff.: AIS Group 2 vs minimal control value; for Absolute dZiec, Group 3, max diff. (group value): AIS Group 3 value of max diff.; for Absolute dZiec, Group 3, min diff. (group value): AIS Group 3 value of min diff.; for % of control signal, Group 3, max diff.: AIS Group 3 vs maximal control value; for % of control signal, Group 3, min diff.: AIS Group 3 vs minimal control value
Excerpt: Bone specimens were obtained intraoperatively from vertebras (varying from T3 to L4 according to the surgical procedure performed), while with trauma cases used as non-scoliotic controls bone specimens were obtained from other anatomical sites (tibia or femur, and in one case from an iliac crest biopsy). Osteoblasts and myoblasts isolated as previously described (Moreau A, Wang D S, Forget S et al. Melatonin Signaling Dysfunction in Adolescent Idiopathic Scoliosis. Spine 2004; 29:1772-81; Azeddine et al., 2007 Molecular determinants of melatonin signaling dysfunction in adolescent idiopathic scoliosis. Clin Orthop Relat Res. 2007, 462:45-52), were cultured at 37° C./5% CO2 in MEM supplemented with 10% fetal bovine serum (FBS) and 100 μg/mL streptomycin. Prior to the experiment, cells were seeded into the CELLKEY™ label-free cellular analysis system standard 96-well plates at a density of 5×10^4/well and grown for 24 h and incubated in standard conditions (37° C./5% CO2). In some plates, Pertussis toxin (100 ng/mL, Sigma, Oakville, ON, Canada) treatment was performed 16 h before the CDS assay. Following overnight incubation, plates were placed onto the CELLKEY™ label-free cellular analysis system and growth medium was exchanged to assay buffer (Hanks, Balanced Salt Solution containing 20 mM HEPES and 0.1% BSA) before starting the experiment. Cells were then allowed to equilibrate at room temperature for 30 min. Pre-addition measurements were made for 5 min to obtain a baseline reading. […] The quick update rate (2 s.) of the CELLKEY™ label-free cellular analysis system allows detection of these immediate changes in impedance. Impedance measurements were collected for 10 min to 15 min at 28° C. after ligand addition to monitor cellular responses to ligand interaction and to generate CELLKEY™ label-free cellular analysis system response profiles that are characteristic of the signaling mechanisms used.
The response induced by the various ligands to their receptors was measured by cellular dielectric spectroscopy (CDS) using the CELLKEY™ label-free cellular analysis technology. (MDS Sciex, San Francisco, Calif., USA). The CELLKEY™ label-free cellular analysis system integrates a proprietary impedance measurement system, custom 96-well microliter plate, onboard 96-well fluidics, and environment control and custom acquisition and analysis software in a full solution package (MDS Sciex) that is compatible with commercially available robotic platforms. Small voltage at 24 frequencies, from 1 KHz to 10 MHz, is applied to a monolayer of cells settled in a 96-well microplate containing electrodes at the bottom, and the resultant current is measured at an update rate of 2 s. […] Onboard fluid additions and exchanges are handled by 96-well head fluid delivery device with a range of 5-500 μL. In addition to the cell plate location, the CELLKEY™ label-free cellular analysis system includes two additional stations for 96- or 384-well compound plates. All aspects of assay set up, execution, and data acquisition and analysis are controlled by CELLKEY™ label-free cellular analysis software.
The minimal (min) and maximal (max) values represent the mean of three independent measurements performed in duplicate (six values in total) for a given patient/control subject. […] Duplicates (n1 and n2) of three independent experiments are presented.

[1] = osteoblasts of AIS#1020 (Group 3) relative to CTR#60
[2] = osteoblasts of AIS#1020 (Group 3)
[3] = osteoblasts of AIS#1198 (Group 3 in Table II) relative to CTR#69
[4] = osteoblasts of AIS#1198 (Group 3 in Table II)
[5] = osteoblasts of AIS#1468 (Group 3) relative to CTR#61
[6] = osteoblasts of AIS#1468 (Group 3)
[7] = osteoblasts of AIS#1474 (Group 1) relative to CTR#60
[8] = osteoblasts of AIS#1474 (Group 1)
[9] = osteoblasts of AIS#1488 (Group 1) relative to CTR#69
[10] = osteoblasts of AIS#1488 (Group 1)
[11] = osteoblasts of AIS#1513 (Group 3) relative to CTR#61
[12] = osteoblasts of AIS#1513 (Group 3)
[13] = osteoblasts of AIS#1550 (Group 2) relative to CTR#60
[14] = osteoblasts of AIS#1550 (Group 2)

Compound	% of control [1]	dZiec value [2]	% of control [3]	dZiec value [4]	% of control [5]	dZiec value [6]	% of control [7]	dZiec value [8]	% of control [9]	dZiec value [10]	% of control [11]	dZiec value [12]	% of control [13]	dZiec value [14]	dZiec value (osteoblasts of control CTR#60)	dZiec value (osteoblasts of control CTR#61)	dZiec value (osteoblasts of control CTR#69)	Absolute dZiec, control value of max diff. (maximal control value)	Absolute dZiec, control value of min diff. (minimal control value)	Absolute dZiec, Group 1, max diff. (group value)	also measured
CNC(=O)[C@H]1O[C@@H](n2cnc3c(NCc4cccc(I)c4)ncnc32)[C@H](O)[C@@H]1O [IB-meca, 1-Deoxy-1-[6-[[(3-iodophenyl)methyl]amino]-9H-purin-9-yl]-N-methyl-β-D-ribofuranuronamide]	50.1% and 47.6% and 50.6% and 47.2% and 47.5% and 50.0%	74.19 and 76.19 and 87.32 and 85.32 and 76.76 and 84.76	41.1% and 45.4% and 47.8% and 50.0% and 45.1% and 47.6%	63.58 and 75.58 and 85.63 and 93.63 and 75.61 and 83.61	77.6% and 79.5% and 78.4% and 78.2% and 79.4%	98.77 and 110.77 and 121.90 and 129.90 and 111.34 and 119.34	21.1% and 18.9% and 21.2% and 20.8% and 18.5% and 22.4%	31.25 and 30.25 and 36.61 and 37.61 and 29.93 and 37.93	25.5% and 24.8% and 26.8% and 24.5% and 23.6% and 27.1%	39.34 and 41.34 and 47.91 and 45.91 and 39.63 and 47.63	61.6% and 64.9% and 67.0% and 68.6% and 64.8% and 66.7%	78.36 and 90.36 and 104.12 and 112.12 and 92.24 and 100.24	44.2% and 42.1% and 47.0% and 43.8% and 42.9% and 45.6%	65.47 and 67.47 and 81.23 and 79.23 and 69.35 and 77.35	148.22/— and 160.22/— and 172.73/— and 180.73/— and 161.48/— and 169.48/—	127.27/— and 139.27/— and 155.44/— and 163.44/— and 142.36/— and 150.36/—	154.52/— and 166.52/— and 179.10/— and 187.10/— and 167.81/— and 175.81/—	172	132	20	% of control (osteoblasts of AIS#1385 (Group 2) relative to CTR#69): 47.6% and 45.3% and 47.5% and 44.4% and 44.9% and 47.4%; dZiec value (osteoblasts of AIS#1385 (Group 2)): 73.49 and 75.49 and 85.15 and 83.15 and 75.32 and 83.32; Absolute dZiec, Group 1, min diff. (group value): 43; % of control signal, Group 1, max diff.: 12%; % of control signal, Group 1, min diff.: 33%; Absolute dZiec, Group 2, max diff. (group value): 73; Absolute dZiec, Group 2, min diff. (group value): 80; % of control signal, Group 2, max diff.: 42%; % of control signal, Group 2, min diff.: 61%; Absolute dZiec, Group 3, max diff. (group value): 98; Absolute dZiec, Group 3, min diff. (group value): 115; % of control signal, Group 3, max diff.: 55%; % of control signal, Group 3, min diff.: 87%
Brc1c(NC2=NCCN2)ccc2nccnc12 [UK14304, 5-bromo-N-(4,5-dihydro-1H-imidazol-2-yl)-6-quinoxalinamine]	42.4% and 37.2% and 34.7% and 40.5% and 37.5% and 41.7%	42.74 and 39.74 and 43.5 and 51.5 and 41.62 and 49.62	42.6% and 43.7% and 57.1% and 54.0% and 49.1% and 58.9%	44.16 and 46.16 and 56.22 and 54.22 and 46.19 and 54.19	72.7% and 71.7% and 76.2% and 68.8% and 73.0%	65.72 and 67.72 and 77.77 and 75.77 and 67.75 and 75.75	20.4% and 19.3% and 18.6% and 19.1% and 17.5% and 16.4%	20.6 and 23.35 and 24.35 and 19.48	25.3% and 24.2% and 26.3% and 18.8% and 28.2% and 28.5%	26.24 and 25.55 and 25.92 and 18.92 and 26.55	64.7% and 64.0% and 70.1% and 63.2% and 65.8% and 67.8%	58.45 and 60.45 and 71.58 and 69.58 and 61.02 and 69.02	53.2% and 42.7% and 45.3% and 35.2% and 41.6% and 45.5%	53.62 and 45.62 and 56.75 and 44.75 and 46.19 and 54.19	100.78/— and 106.78/— and 125.27/— and 127.27/— and 111.02/— and 119.02/—	90.39/— and 94.39/— and 102.1/— and 110.1/— and 92.75/— and 101.75/—	103.67/— and 105.67/— and 98.38/— and 100.38/— and 94.02/— and 92.02/—	115	98	21	% of control (osteoblasts of AIS#1549 (Group 1) relative to CTR#61): 30.0% and 30.8% and 33.7% and 33.1% and 35.3% and 36.1%; dZiec value (osteoblasts of AIS#1549 (Group 1)): 27.08 and 29.08 and 34.45 and 36.45 and 32.76 and 36.76; Absolute dZiec, Group 1, min diff. (group value): 32; % of control signal, Group 1, max diff.: 18%; % of control signal, Group 1, min diff.: 33%; Absolute dZiec, Group 2, max diff. (group value): 45; Absolute dZiec, Group 2, min diff. (group value): 50; % of control signal, Group 2, max diff.: 39%; % of control signal, Group 2, min diff.: 51%; Absolute dZiec, Group 3, max diff. (group value): 60; Absolute dZiec, Group 3, min diff. (group value): 71; % of control signal, Group 3, max diff.: 52%; % of control signal, Group 3, min diff.: 72%
